Data reported in patent publication US20230106592A1, “METHOD FOR TREATING CANCER USING A COMBINATION OF DNA DAMAGING AGENTS AND ATR INHIBITORS” (Vertex Pharmaceuticals Incorporated, priority 2015, published 2023).

Columns and labels:
advanced solid tumors [1] = assay: Phase I trial, combination with gemcitabine: response and PFS; format: in vivo, human
Experimental: (§3) Fifty (50) pts (28 males and 22 females) of median age, 62 yrs (range 28-79 yrs), with Eastern Cooperative Oncology Group (ECOG) performance status 0/1:15/35 were treated. Primary tumors included non-small cell lung (NSCLC; n=6), pancreatic (n=2), breast (n=4), colorectal (n=15), head and neck (n=1), and other/missing (n=22).

[2] = test system: OD26749 primary human non-small cell lung cancer xenografts; assay: Primary NSCLC xenograft, dose schedule in combination with cisplatin; format: in vivo, SCID mice
From the text: This contrasts with the effects of either agent given alone, where neither Compound A-2the nor cisplatin had any meaningful impact on tumor growth (≤10% tumor growth inhibition).

[3] = Phase I trial, combination with cisplatin: pharmacokinetics; format: in vivo, human
From the text: Non-DLT grade 3-4 treatment-related adverse events occurred in 11 pts, including nausea, cytopenia, hypotension, hypoalbuminemia, hypokalemia, elevated liver function tests (LFTs), and drug hypersensitivity. The maximum tolerated combination dose was not reached.

PSN1 cancer cells = assay: In vitro dose schedule with gemcitabine, MTS cell viability, Bliss synergy analysis; format: cell-based, human
Experimental: Cell viability was measured by MTS assay at 96 hours and the data subjected to a statistical Bliss analysis using MacSynergy II software to quantitate synergy as a log volume.
Cell viability was measured by MTS assay (96 hours) and the data subjected to a statistical Bliss analysis. Compound A-2 synergized with gemcitabine when administered at the start of gemcitabine treatment. […] The strong schedule dependence is attributed to an accumulation of cells in S phase, and concomitant increase in ATR activity (measured by P-Chk1) that occurs in response to gemcitabine treatment alone.

pS345 Chk1 = assay: pChk1 in paired tumor biopsies by immunohistochemistry; format: in vivo, human; details: for Decreased Chk1 phosphorylation: paired tumor biopsy
From the text: In some embodiments, one or more biomarkers may be used to monitor or determine the efficacy of the treatment. In certain embodiments, the percentage of phosphorylated Chk1 (i.e., pChk1) in paired samples may be used as a biomarker; pChk1 is believed to correlate with the level of ATR activity. For instance, in some embodiments, the amount of pChk1 in the nuclei of cancer cells/mm^2 of a tumor biopsy may be used to determine the efficacy of monotherapy with an ATR inhibitor or combination therapy including an ATR inhibitor in a subject. In some such embodiments, a first tumor biopsy may be taken between about one to about three hours (e.g., two hours) before administration of the ATR inhibitor and a second tumor biopsy may be taken between about one to about three hours (e.g., two hours) after administration of the ATR inhibitor. The amount of pChk1 in the nuclei of cancer cells/mm^2 tumor in the first biopsy is set to be 100%, such that the amount of pChk1 in the nuclei of cancer cells/mm^2 tumor in the second biopsy is normalized by the amount in the first biopsy.
(§1) Pts with advanced solid tumors enrolled in 2 sequential parts.
As noted in Example 3, phosphorylated Chk1 was used as a biomarker in paired tumor biopsies of three subjects to determine the efficacy of the combination therapy. […] The amount of pChk1 in the nuclei of cancer cells/mm^2 tumor in the first biopsy was set to 100% and used to normalize the amount in the second biopsy.

[4] = Phase I trial, combination with gemcitabine: adverse events and DLTs
Experimental: as §3

advanced solid tumors [5] = assay: Phase I trial, combination with carboplatin: RECIST response and PFS; format: in vivo, human
Experimental: as §1
(§2) In part A, single pt cohorts received a compound of Formula A-2 once weekly in 21-day cycles with 3+3 dose escalation cohorts being implemented if grade 2 drug-related adverse events (AEs) occurred. […] If a DLT was reported, the cohort was expanded to include 3 additional pts with subsequent dose escalation being permitted if no further DLTs occurred. Paired pre- and post-treatment biopsies from selected pts in part B were assessed for pCHK1 levels by immunohistochemistry. Models based on preclinical and clinical data were used to simulate hematologic toxicities and pCHK1 inhibition for pts treated with a compound of Formula A-2 and CP.

[6] = Phase I trial, combination with cisplatin: adverse events and DLTs
Experimental: Twenty eight (28) pts (12 males and 16 females) of median age, 62.5 yrs (range 28-79 yrs), with Eastern Cooperative Oncology Group (ECOG) performance status 0-1 were treated. Primary tumors were breast (n=4), colorectal (n=3), ovarian (n=3), pancreatic (n=2), non-small cell lung cancer (NSCLC) (n=1), and other cancers (n=15).

advanced solid tumors [7] = assay: Phase I trial, monotherapy: RECIST antitumor response; format: in vivo, human
From the text: as §1
Eleven of the subjects were given a once weekly dosage of Compound A-2 as a monotherapy. Six of the subjects were given a twice weekly dosage of Compound A-2 as a monotherapy. […] DLTs were defined according to the National Cancer Institute (NCI) CTCAE (Version 4).
as §2

[8] = Compound A-2 10 mg/kg twice weekly, 14 hours after cisplatin 3 mg/kg weekly

**Q.** With `CNCc1ccc(-c2cc(-c3nc(-c4ccc(S(=O)(=O)C(C)C)cc4)cnc3N)on2)cc1` [Compound A-2] as the compound, how does the “Progression-free survival (PFS)” value (advanced solid tumors [1]; 1 patient with renal cancer (papillary carcinoma), combination with gem) read?
**A.** Its value is 415 days.

**Q.** And the “Median PFS” value (advanced solid tumors [1]; Compound A-2 <90 mg/m^2 + gemcitabine 875 mg/m^2)?
**A.** Its value is 8.3 weeks.

**Q.** What about the “Median PFS” value (advanced solid tumors [1]; Compound A-2 ≥90 mg/m^2 + gemcitabine 500 mg/m^2) of the same compound?
**A.** The value was 29.3 weeks.

**Q.** And the “Prolonged stable disease (SD) responses” value (advanced solid tumors [1]; combination with gem)?
**A.** The value was 2 pts.

**Q.** And the “Best overall response partial response (PR)” value (advanced solid tumors [1]; combination with gem, 50 pts)?
**A.** The value was 4 pts.

**Q.** What about the “Progression-free survival (PFS)” value (advanced solid tumors [1]; pt with GIST, combination with gem) of the same compound?
**A.** Its value is over 191 days.

**Q.** What about the Time on trial (advanced solid tumors [1]; pt with breast cancer in DL8) of the same compound?
**A.** Its Time on trial is over 133 days.

**Q.** What about the “Efficacy (tumor volume)” value ([2]; Compound A-2 10 mg/kg twice weekly dosed 14 hours after cisplatin 3 mg/kg weekly) of the same compound?
**A.** Its value is “most effective”.

**Q.** What about the Growth delay [2, 8] of the same compound?
**A.** The Growth delay was “substantial growth delay”.

**Q.** What about the Tumor regression [2, 8] of the same compound?
**A.** Its Tumor regression is 43%.

**Q.** What about the “Body weight loss at nadir” value ([2]; combination of Compound A-2 and cisplatin) of the same compound?
**A.** The value was under 2%.

**Q.** What about the half-life ([3]; both sexes, human, in vivo, intravenous, combination with CIS, read-out: Terminal elimination half-life (converted)) of the same compound?
**A.** Its half-life is about 960 min.

**Q.** And the “PK across the dosage ranges” value ([3]; combination with CIS, 90-210 mg/m^2)?
**A.** Its value is “proportional”.

**Q.** And the “Effect of CIS on the pharmacokinetics of Compound A-2” value ([3]; in vivo)?
**A.** Its value is “no effect”.

**Q.** What about the “Synergy with gemcitabine (Bliss analysis of cell viability)” value (“Synergy with gemcitabine” below) (PSN1 cancer cells; Compound A-2 2 hour exposure at the start of 24 hour gemcitabine treatment, MTS at 96 hours) of the same compound?
**A.** The value was “synergized”.

**Q.** And the “Synergy with gemcitabine” value (PSN1 cancer cells; Compound A-2 administered 24 hours after starting gemcitabine treatment)?
**A.** Its value is “maximal”.

**Q.** And the “Synergy with gemcitabine” value (PSN1 cancer cells; Compound A-2 administered 48 hours or later after gemcitabine treatment was started)?
**A.** The value was “No synergy”.

**Q.** And the “Decreased Chk1 phosphorylation” value (pS345 Chk1; DL2 (120 mg/m^2 + CP AUC 5))?
**A.** The value was 94%.

**Q.** What about the “Decreased Chk1 phosphorylation” value (pS345 Chk1; DL4 (90 mg/m^2 + CP AUC 5)) of the same compound?
**A.** The value was 74%.

**Q.** What about the “Decrease in pChk1 in nuclei of cancer cells/mm^2 tumor” value (pS345 Chk1; subject 1: carboplatin target AUC 5 mg/mL·min + 120 mg/m^2 Compound A-2, biopsy 2 hours before and after) of the same compound?
**A.** Its value is 94%.

**Q.** And the “Decrease in pChk1 in nuclei of cancer cells/mm^2 tumor” value (pS345 Chk1; subjects 2 and 3: carboplatin target AUC 5 mg/mL·min + 90 mg/m^2 Compound A-2)?
**A.** Its value is 73%.

**Q.** And the DLTs ([4]; DL4: 72 mg/m^2 + gem 875 mg/m^2, grade 3 thrombocytopenia, grade 3 elevated ALT and fatigue)?
**A.** The DLTs was 2 pts.

**Q.** And the DLTs ([4]; DL5: 90 mg/m^2 + gem 500 mg/m^2, grade 3 elevated AST)?
**A.** Its DLTs is 1 pt.

**Q.** And the DLTs ([4]; DL6: 140 mg/m^2 + gem 500 mg/m^2, grade 3 elevated AST, ALT and grade 2 elevated ALP)?
**A.** The DLTs was 1 pt.

**Q.** And the DLTs ([4]; all DLs, 50 pts)?
**A.** The DLTs was 4 pts.

**Q.** And the Cumulative toxicity ([4]; combination with gem)?
**A.** Its Cumulative toxicity is “No cumulative toxicity”.

**Q.** What about the Maximum tolerated dose ([4]; combination with gem, up to DL10) of the same compound?
**A.** The Maximum tolerated dose was “not reached”.

**Q.** And the “Grade 3/4 treatment-related adverse events (AEs)” value ([4]; gem days 1 and 8, Compound A-2 days 2 and 9, 50 pts)?
**A.** The value was 25 pts.

**Q.** What about the “PFS (progression-free survival)” value (advanced solid tumors [5]; Subject 1, Ovarian, Compound A-2 120 mg/m^2 + carboplatin AUC 5 mg/mL·min) of the same compound?
**A.** The value was 175 days.

**Q.** What about the “PFS (progression-free survival)” value (advanced solid tumors [5]; Subject 2, Ovarian, Compound A-2 90 mg/m^2 + carboplatin AUC 5 mg/mL·min) of the same compound?
**A.** The value was 176 days.

**Q.** And the “PFS (progression-free survival)” value (advanced solid tumors [5]; Subject 3, Breast, Compound A-2 90 mg/m^2 + carboplatin AUC 5 mg/mL·min)?
**A.** The value was 67 days.

**Q.** And the Best response (advanced solid tumors [5]; part B with CP (n=1))?
**A.** The Best response was “partial response”.

**Q.** And the RECIST response (advanced solid tumors [5]; platinum and antimetabolite refractory high grade serous ovarian cancer subject, carboplatin AUC 5 day 1, Compound A-2 90 mg/m^2 days 2 and 9)?
**A.** Its RECIST response is “partial response”.

**Q.** And the “Duration of RECIST partial response” value (advanced solid tumors [5]; refractory ovarian cancer subject, carboplatin AUC 5 + Compound A-2 90 mg/m^2, ongoing)?
**A.** The value was “more than 6 months”.

**Q.** What about the “Non-DLT grade 3-4 treatment-related adverse events” value ([6]; CIS day 1, Compound A-2 days 2 and 9, 28 pts) of the same compound?
**A.** Its value is 11 pts.

**Q.** And the “No. DLTs” value ([6]; Cohort 4: Compound A-2 210 mg/m^2 + Cisplatin 60 mg/m^2, 10/10, grade 3 elevated ALT)?
**A.** Its value is 1 (grade 3.

**Q.** And the “No. DLTs” value ([6]; Cohort 5: Compound A-2 140 mg/m^2 + Cisplatin 75 mg/m^2, 7/6, grade 3 drug hypersensitivity)?
**A.** Its value is 1 (grade 3 drug.

**Q.** And the “Maximum tolerated combination dose” value ([6]; combination with CIS)?
**A.** Its value is “not reached”.

**Q.** What about the RECIST response (advanced solid tumors [7]; advanced colorectal cancer pt with complete ATM loss, monotherapy 60 mg/m^2 weekly) of the same compound?
**A.** The RECIST response was “complete response”.

**Q.** And the Time on trial (advanced solid tumors [7]; colorectal cancer pt with complete response, monotherapy 60 mg/m^2)?
**A.** The Time on trial was at least 59 wks.

**Q.** And the “Duration of RECIST complete response” value (advanced solid tumors [7]; colorectal cancer subject, monotherapy 60 mg/m^2 weekly, ongoing)?
**A.** Its value is “more than 28 months”.

**Q.** What about the “Median duration of SD” value (advanced solid tumors [7]; monotherapy, 4 pts) of the same compound?
**A.** The value was 11 wks.

**Q.** And the Best response (advanced solid tumors [7]; part A monotherapy (n=1))?
**A.** The Best response was “complete response”.
